Columns and labels:
Type in all cases: in vivo
[1] = tested on: Chamomilla recutita, Artemisia pallens, Pelargonium graveolens, and Mentha arvensis; assay: Screening of resistance-inducing chemicals on potted aromatic plants under glasshouse conditions; details: plants in pots, four aromatic plants
Source text: In this example, fifteen chemicals known to induce resistance in plants were screened by applying the chemicals to four varieties of aromatic plants in pots. The four aromatic plants used in this screening included: Chamomilla recutita, Artemisia pallens, Pelargonium graveolens, and Mentha arvensis. […] These eight chemicals include isonicotinamide, DL-2 amino butyric acid, 4-chlorosalicylic acid, 2-amino isobutyric acid, o-acetyl salicylic acid, amino salicylic acid, salicylic acid, and 5-nitrosalicylic acid.

Mentha arvensis cv. Kosi [2] = assay: Optimal crop maturity stage for chemical application, essential oil content; details: 2 mM spray, LSD (p = 0.05) 0.07
Method: In this example, three of the chemicals described above were further investigated to determine the optimal crop maturity stage for applying the formulation. The three chemicals used in this example were DL-2 amino butyric acid, isonicotinamide, and salicylic acid, all at concentrations of 2 mM. The solutions were tested on Mentha arvensis cv. Kosi planted in a randomized block design with 5 replications. In these experiments, the crops were sprayed at 4 different stages of growth and development including 10-day-old crops, 50-day-old crops, 80-day-old crops, and 100-day-old crops.

[3] = tested on: Pelargonium graveolens cv. Bipuli; assay: Further large plot field testing at about 206 mg/L, essential oil content
Method: (§1) In the present example, field experiments were conducted, wherein 6 larger plots of Pelargonium graveolens cv. Bipuli (about 25 m^2) were sprayed with solutions of DL-2 amino butyric acid at several different concentrations. An equal number of plots sprayed with sterilized distilled water served as a control group. At least 20 samples of herbage from the sprayed plots and at least 20 samples of herbage from the control plots were distilled in Clevenger type glass apparatus 15 days after spray.
(§2) Further field testing involved samples of herbage of both Pelargonium graveolens cv. Bipuli and Mentha arvensis cv. Kosi being treated with a solution of DL-2 amino butyric acid at a concentration of about 206 mg/L in water. Similarly to the above tests, large plots were sprayed with the DL-2 amino butyric acid solution, and samples of herbage from both the sprayed plots and the control plots were examined for their essential oil content.

Mentha arvensis cv. Kosi [4] = assay: as above
Method: as §1, §2

[5] = tested on: Pelargonium graveolens cv. Bipuli; assay: Large scale field testing at several concentrations, essential oil content; details: for Content of Essential Oil (%): distilled 15 days after spray, water 0.16, LSD (p = 0.05) 0.01
Method: as §1

[6] = tested on: Pelargonium graveolens cv. Bipuli; assay: Field testing of identified compounds, essential oil content; details: for Content of Essential Oil (%): 2 mM spray at onset of maturity, 15 days before harvest, water control 0.13, LSD (p = 0.05) 0.01; for change in essential oil content (in words): stated for the field tests of Table 1 (both plants) without naming the plant
Method: (§3) The eight chemicals selected in the previous example for their effects on aromatic plants were subsequently field tested using 2 mM solutions of each chemical in sterilized distilled water. The field tests were performed on Pelargonium graveolens cv. Bipuli and Mentha arvensis cv. […] The plants were sprayed with the 2 mM solutions of the chemicals at the onset of maturity, 15 days before harvest. Plants sprayed with sterilized distilled water served as a control group.

Mentha arvensis cv. Kosi [7] = assay: as above; details: for Content of Essential Oil (%): 2 mM spray at onset of maturity, 15 days before harvest, water control 0.66, LSD (p = 0.05) 0.06
Method: as §3

[8] = age of crop at spray 10 days, water 0.67
[9] = age of crop at spray 50 days, water 0.67
[10] = age of crop at spray 80 days, water 0.68
[11] = age of crop at spray 100 days, water 0.66
[12] = about 206 mg/L, compared to herbage samples treated only with water
[13] = 2 mM spray, versus water control

**Q.** What does the source list for `CCC(N)C(=O)O` (racemic) [DL-2 amino butyric acid]?
**A.** improving growth and herbage and/or essential oil content [1]: particularly effective; Content of Essential Oil (%) (Mentha arvensis cv. Kosi [2]; [8]): 0.80%; Content of Essential Oil (%) (Mentha arvensis cv. Kosi [2]; [9]): 0.82%; Content of Essential Oil (%) (Mentha arvensis cv. Kosi [2]; [10]): 0.81%; Content of Essential Oil (%) (Mentha arvensis cv. Kosi [2]; [11]): 0.84%; Content of Essential Oil (Mean % ± S.E.) ([3]; about 206 mg/L in water, n ≧ 20 herbage samples, water 0.14 ± 0.01): 0.19 ± 0.01%; increase in essential oil content [3, 12]: about 36%; Content of Essential Oil (Mean % ± S.E.) (Mentha arvensis cv. Kosi [4]; about 206 mg/L in water, n ≧ 20 herbage samples, water 0.74 ± 0.02): 0.89 ± 0.02%; increase in essential oil content (Mentha arvensis cv. Kosi [4]; [12]): about 20%; Content of Essential Oil (%) ([5]; 0.1 mM solution): 0.16%; Content of Essential Oil (%) ([5]; 1.0 mM solution): 0.17%; increase in essential oil content ([5]; 2 mM and 4 mM, versus water): about 25%; Content of Essential Oil (%) ([5]; 2.0 mM solution): 0.20%; Content of Essential Oil (%) ([5]; 4.0 mM solution): 0.20%; Content of Essential Oil (%) [6]: 0.19%; increase in essential oil content [6, 13]: about 46%; Content of Essential Oil (%) (Mentha arvensis cv. Kosi [7]): 0.84%; increase in essential oil content (Mentha arvensis cv. Kosi [7]; [13]): about 27%

**Q.** What does the source list for `CC(C)(N)C(=O)O` [2-amino isobutyric acid]?
**A.** improving growth and herbage and/or essential oil content [1]: particularly effective; Content of Essential Oil (%) [6]: 0.12%; Content of Essential Oil (%) (Mentha arvensis cv. Kosi [7]): 0.72%

**Q.** Which “improving growth and herbage and/or essential oil content” value [1] does the source give for `O=C(O)c1ccc(Cl)cc1O` [4-chloro salicylic acid] here?
**A.** particularly effective

**Q.** And the “Content of Essential Oil (%)” value [6]?
**A.** 0.13%

**Q.** And the “Content of Essential Oil (%)” value (Mentha arvensis cv. Kosi [7])?
**A.** 0.68%

**Q.** For `O=C(O)c1cc([N+](=O)[O-])ccc1O` [5-nitrosalicylic acid], which “improving growth and herbage and/or essential oil content” value [1] is on record?
**A.** particularly effective

**Q.** And the “Content of Essential Oil (%)” value [6]?
**A.** 0.13%

**Q.** What about the “Content of Essential Oil (%)” value (Mentha arvensis cv. Kosi [7]) of the same molecule?
**A.** 0.73%

**Q.** What does the source list for `NC(=O)c1ccncc1` [isonicotinamide]?
**A.** improving growth and herbage and/or essential oil content [1]: particularly effective; Content of Essential Oil (%) (Mentha arvensis cv. Kosi [2]; [8]): 0.71%; Content of Essential Oil (%) (Mentha arvensis cv. Kosi [2]; [9]): 0.70%; Content of Essential Oil (%) (Mentha arvensis cv. Kosi [2]; [10]): 0.70%; Content of Essential Oil (%) (Mentha arvensis cv. Kosi [2]; [11]): 0.70%; Content of Essential Oil (%) [6]: 0.14%; change in essential oil content (in words) ([6]; 2 mM spray): slight increase; Content of Essential Oil (%) (Mentha arvensis cv. Kosi [7]): 0.70%

**Q.** `O=C(O)c1ccccc1O` [salicylic acid] was tested. Which “improving growth and herbage and/or essential oil content” value [1] did it give?
**A.** particularly effective

**Q.** And the “Content of Essential Oil (%)” value (Mentha arvensis cv. Kosi [2]; [8])?
**A.** 0.70%

**Q.** And the “Content of Essential Oil (%)” value (Mentha arvensis cv. Kosi [2]; [9])?
**A.** 0.68%

**Q.** And the “Content of Essential Oil (%)” value (Mentha arvensis cv. Kosi [2]; [10])?
**A.** 0.70%

**Q.** What about the “Content of Essential Oil (%)” value (Mentha arvensis cv. Kosi [2]; [11]) of the same molecule?
**A.** 0.70%

**Q.** And the “Content of Essential Oil (%)” value [6]?
**A.** 0.11%

**Q.** And the “change in essential oil content (in words)” value ([6]; 2 mM spray)?
**A.** slight reduction

**Q.** What about the “Content of Essential Oil (%)” value (Mentha arvensis cv. Kosi [7]) of the same molecule?
**A.** 0.70%
